Where two headings read alike, the source gives them in different places.

This note sets out measurements from article PMC6435698, “Keggin-type polyoxotungstates as mushroom tyrosinase inhibitors - A speciation study” (Scientific Reports, 2019).

The assay deals with T1, abPPO4 (mushroom tyrosinase) (Agaricus bisporus, UniProt C7FF05).
T1 construct: glutathione-S-transferase (GST) (N, cleaved yes); made in house; host or cells: E. coli BL21(DE3)
T1 sequence (C7FF05 1-379 limits assumed): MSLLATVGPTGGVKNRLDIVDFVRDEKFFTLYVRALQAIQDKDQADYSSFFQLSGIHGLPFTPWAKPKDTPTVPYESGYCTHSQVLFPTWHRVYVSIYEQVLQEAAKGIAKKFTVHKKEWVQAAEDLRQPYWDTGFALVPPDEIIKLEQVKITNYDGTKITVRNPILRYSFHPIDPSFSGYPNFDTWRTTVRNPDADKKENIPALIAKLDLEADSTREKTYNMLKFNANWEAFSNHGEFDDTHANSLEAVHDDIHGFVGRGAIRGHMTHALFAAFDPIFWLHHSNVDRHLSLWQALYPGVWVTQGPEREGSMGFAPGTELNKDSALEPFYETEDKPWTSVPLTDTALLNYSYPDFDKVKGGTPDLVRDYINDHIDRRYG
The experiment in a line: dopachrome assay, inhibition of abPPO4 diphenolase activity. As to Ki [mM], from Dixon plots: L-DOPA 0.4–1.5 mM. As to Ki [mM], from Lineweaver-Burk slopes: L-DOPA 0.4–1.5 mM. The class given is biochemical. The conditions noted are these: for α, inhibition parameter, from Lineweaver-Burk intercepts: [b] from Lineweaver-Burk intercepts; for Inhibition type: substrate L-DOPA. The method, then: The detailed methodology applied for kinetic evaluation is presented in the SI.
For the activity plots shown here, the ratios of reaction rates v ([I] = 0] and vapp ([I] = 0.2–14 mM) were determined from UV absorption measurements at 475 nm using the dopachrome assay. Each reaction setup contained a fixed amount of enzyme (1 µg abPPO4) in 1 mL in a plastic cuvette and the reaction buffer was 50 mM Na-citrate pH 6.8. POT stock solutions were prepared in 20 mM concentration in reaction buffer and adjusted for pH 6.8 with NaOH, if necessary. The reaction rates were extracted from the obtained absorption curves as the slope of linear fits of the steepest curve sections close to the start of the reaction over a time-range of 30 s and were determined in triplicates. The relative enzymatic activity dependent on the inhibitor concentration was fitted to a suitable hyperbolic expression (see SI for details). […] The dopachrome assay was performed exactly as described in section 3.1.1. This time, the observed reaction velocities vapp (in µmol/min) were calculated from the extracted reaction rates (in 1/s) using the extinction coefficient of dopachrome ε = 3700 M^−1 cm^−1 [62]. The so obtained data was plotted according to Lineweaver-Burk, and the slopes and ordinate intercepts of these graphs were used to extract inhibition parameters.
(The kinetic models with according mathematical expressions applied in this study are based on Copeland’s guide for enzyme kinetics[28].)
The classical Michaelis-Menten equation[28] relates the velocity v of an enzymatic reaction to the applied substrate concentration [S]:
In this equation, the Michaelis constant KM represents the substrate concentration effecting the half-maximum reaction rate vmax.
For the reported inhibition studies, we chose an expanded version of this equation (1) which accounts for all possible inhibition mechanisms and combinations thereof[28]. In general, both […]
ݒ௠௔௫,௔௣௣ = ௩೘ೌೣଵା [಺] (2)
Herein, [I] refers to the inhibitor concentration, Ki is the inhibition constant measuring the […]
The three ideal inhibition types are reflected by three limiting conditions for α:
(A) 0 < α <<1: uncompetitive inhibition
(B) α = 1: non-competitive inhibition
(C) α >> 1: competitive inhibition
Therefore, values of α < 1 often correspond to mixed-type inhibition with contributions from uncompetitive and non-competitive inhibition modes.
Insertion of expressions (2) and (3) in equation (1) leads to the final mixed-type inhibition […]
The relative enzymatic activity upon inhibition can be expressed as the ratio of the observed reaction velocity v app to the non - inhibited reaction performance v through dividing equation […]
This corresponds to a normalization of the reaction rates with respect to the non - inhibited rate. As w e were interested in the dependence of the reaction velocity on the inhibitor concentration , the substrate concentration was fixed to 1 mM L - DOPA for all activity plots.
This led to a further simplification of equation ( 1 ) : […]
Equation (6) was used as the final curve fit expression for kinetic evaluation of those POM […]
K M was set to 26.1 mM as reported for ab PPO4 by
3.2 Determination of inhibition type
3.2. 1 Kinetic evaluation using Lineweaver - Burk plots […]
linear Lineweaver - Burk [ 29 ] extrapolations. The double - reciprocal plots of 1/ v app against 1/[S] yielded straight li nes that were fitted accordingly to the corresponding ly rearranged form of […]
For simplicity, the terms for the slope m and the ordinate shift t are co mbine d in constants in […]

Setting [1] is: [a] from activity plot, 1 mM L-DOPA, 50 mM Na-citrate pH 6.8, 0–14 mM POT, read-out: Ki [mM], from activity plot.
Where [2] appears, read: [a] from activity plot, 1 mM L-DOPA, pH 6.8.
Where [3] appears, read: [b] from Lineweaver-Burk slopes, L-DOPA 0.4–[…], pH 6.8, read-out: Ki [mM], from Lineweaver-Burk slopes.
Where [4] appears, read: [c] from Dixon plots, average intersection, L-DOPA 0.4–[…], pH 6.8, read-out: Ki [mM], from Dixon plots.

Consider `[Na+].[Na+].[O]=[W](=[O])([O-])[O-]` [[WO4]^2−, Na2WO4, reference compound], for which the Ki reads like this: under setting [1], 20 mM; under setting [3], 19 mM; under setting [4], 24.8 mM. Besides, the “α, inhibition parameter, from activity plot” value under setting [2] was determined as 0.14. Also, the “α, inhibition parameter, from Lineweaver-Burk intercepts” value (pH 6.8) amounted to 0.03. The Inhibition type entry (pH 6.8) is reported as “Mixed-type”.
On to K4[SiW12O40] [[SiW12]^4−], for which the Ki under setting [1] is 4.7 mM, the Ki under setting [3] was found to be 3.8 mM and the Ki under setting [4] is 5.6 mM. Further, the “α, inhibition parameter, from activity plot” value under setting [2] worked out at 0.11. In addition, the “α, inhibition parameter, from Lineweaver-Burk intercepts” value (pH 6.8) worked out at 0.32. The “inhibitory effect on abPPO4 activity (in words)” value (activity plots, 1 mM L-DOPA, pH 6.8) is “most potent inhibitory effect”. Also, where the note is “pH 6.8”, the Inhibition type entry was “Mixed-type”.
